According to PubChem BioAssay AID192 (DTP/NCI, 2004):
Several values for one entry are separate records, joined by “and”; a condition that tells them apart may be missing. Equal entries are not always repeated. Inconclusive results and toxic doses are left out. How the source made its calls: active means survival T/C of 150% or more; inactive means T/C below 125% in these data.

Tested on: BDF1 mice, B16 melanoma ip, median survival T/C
Assay: NCI In Vivo Anticancer Drug Screen. Data for tumor model B16 Melanoma (intraperitoneal) in B6D2F1 (BDF1) mice
Conditions: endpoint: median survival time, higher = longer survival
Outline: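 Mice with transplantable tumors; drug vs vehicle groups; endpoint survival or tumor size; value = T/C.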

[1] = dose: 4.0 mg/kg/injection, schedule: Q01DX009 (ip), vehicle: saline with Tween-80
[2] = dose: 8.0 mg/kg/injection, schedule: Q01DX009 (ip), vehicle: saline with Tween-80
[3] = dose: 16.0 mg/kg/injection, schedule: Q01DX009 (ip), vehicle: saline with Tween-80
[4] = dose: 2.5 mg/kg/injection, schedule: Q01DX009 (ip), vehicle: Klucel (hydroxypropylcellulose) (HPC)
[5] = dose: 6.25 mg/kg/injection, schedule: Q01DX009 (ip), vehicle: saline
[6] = dose: 12.5 mg/kg/injection, schedule: Q01DX009 (ip), vehicle: saline
[7] = dose: 25.0 mg/kg/injection, schedule: Q01DX009 (ip), vehicle: saline with Tween-80
[8] = dose: 50.0 mg/kg/injection, schedule: Q01DX009 (ip), vehicle: saline with Tween-80
[9] = dose: 100.0 mg/kg/injection, schedule: Q01DX009 (ip), vehicle: saline with Tween-80
[10] = dose: 6.25 mg/kg/injection, schedule: Q01DX009 (ip), vehicle: Klucel (hydroxypropylcellulose) (HPC)
[11] = dose: 12.5 mg/kg/injection, schedule: Q01DX009 (ip), vehicle: Klucel (hydroxypropylcellulose) (HPC)
[12] = dose: 25.0 mg/kg/injection, schedule: Q01DX009 (ip), vehicle: Klucel (hydroxypropylcellulose) (HPC)
[13] = dose: 50.0 mg/kg/injection, schedule: Q01DX009 (ip), vehicle: Klucel (hydroxypropylcellulose) (HPC)
[14] = dose: 100.0 mg/kg/injection, schedule: Q01DX009 (ip), vehicle: Klucel (hydroxypropylcellulose) (HPC)
[15] = dose: 200.0 mg/kg/injection, schedule: Q01DX009 (ip), vehicle: Klucel (hydroxypropylcellulose) (HPC)
[16] = dose: 200.0 mg/kg/injection, schedule: Q01DX009 (ip), vehicle: saline with Tween-80
[17] = dose: 400.0 mg/kg/injection, schedule: Q01DX009 (ip), vehicle: saline with Tween-80
[18] = dose: 1.0 mg/kg/injection, schedule: Q01DX009 (ip), vehicle: saline with Tween-80
[19] = dose: 2.0 mg/kg/injection, schedule: Q01DX009 (ip), vehicle: saline with Tween-80

Measured: T/C

CCc1ccc(/C=C/c2ccc(O)c3ncccc23)[n+](C)c1
inactive: [1] 93 % of control | [2] 93 % of control | [3] 102 % of control | dose: 32.0 mg/kg/injection, schedule: Q01DX009 (ip), vehicle: saline with Tween-80 114 % of control

C1CNCCN1
inactive: dose: 25.0 mg/kg/injection, schedule: Q01DX009 (ip), vehicle: suspension in saline 93 % of control | dose: 50.0 mg/kg/injection, schedule: Q01DX009 (ip), vehicle: suspension in saline 102 % of control | dose: 100.0 mg/kg/injection, schedule: Q01DX009 (ip), vehicle: suspension in saline 106 % of control | dose: 200.0 mg/kg/injection, schedule: Q01DX009 (ip), vehicle: suspension in saline 90 % of control

O=C1C=C(SCCO)C(=O)c2ccccc21
inactive: dose: 13.0 micrograms/kg/injection, schedule: Q01DX009 (ip), vehicle: saline with Tween-80 100 % of control | dose: 18.7 micrograms/kg/injection, schedule: Q01DX009 (ip), vehicle: saline with Tween-80 94 % of control | dose: 20.0 micrograms/kg/injection, schedule: Q01DX009 (ip), vehicle: saline with Tween-80 92 % of control | dose: 30.0 micrograms/kg/injection, schedule: Q01DX009 (ip), vehicle: saline with Tween-80 95 % of control | dose: 45.0 micrograms/kg/injection, schedule: Q01DX009 (ip), vehicle: saline with Tween-80 117 % of control | dose: 90.0 micrograms/kg/injection, schedule: Q01DX009 (ip), vehicle: saline with Tween-80 107 % of control

COc1cc2c(cc1OC)C1CNC(=O)C1C(c1ccccc1)C2 (configuration not stated)
inactive: [4] 91 % of control | dose: 3.75 mg/kg/injection, schedule: Q01DX009 (ip), vehicle: Klucel (hydroxypropylcellulose) (HPC) 91 % of control | dose: 5.0 mg/kg/injection, schedule: Q01DX009 (ip), vehicle: Klucel (hydroxypropylcellulose) (HPC) 98 % of control | dose: 7.5 mg/kg/injection, schedule: Q01DX009 (ip), vehicle: Klucel (hydroxypropylcellulose) (HPC) 97 % of control | dose: 10.0 mg/kg/injection, schedule: Q01DX009 (ip), vehicle: Klucel (hydroxypropylcellulose) (HPC) 94 % of control | dose: 15.0 mg/kg/injection, schedule: Q01DX009 (ip), vehicle: Klucel (hydroxypropylcellulose) (HPC) 92 % of control

CN(C)CCOC(c1ccccc1)c1ccccc1
inactive: dose: 3.12 mg/kg/injection, schedule: Q01DX009 (ip), vehicle: saline 86 % of control | [5] 100 % of control | [6] 100 % of control

C=C1C(C)C2C(Cc3ccccc3)NC(=O)C23OC(=O)/C=C\CC(=O)CCC(C)C/C=C/C3C1O (configuration not stated)
inactive: [4] 94 % of control

CC(O)C(NC(=O)OC(C)(C)C)C(=O)O (configuration not stated)
inactive: dose: 200.0 mg/kg/injection, schedule: Q01DX009 (ip), vehicle: saline 105 % of control | dose: 400.0 mg/kg/injection, schedule: Q01DX009 (ip), vehicle: saline 93 % of control

Nc1ccc(N=Nc2ccc(S(=O)(=O)O)cc2)cc1
inactive: [7] 93 % of control | [8] 97 % of control | [9] 90 % of control and 104 % of control

CC(C)C(=O)NNCc1ccccc1
inactive: [10] 95 % of control | [11] 97 % of control | [12] 95 % of control | [13] 90 % of control

CCCCNC(C)(C)C(SSSC(c1ccc(Cl)cc1)C(C)(C)NCCCC)c1ccc(Cl)cc1 (configuration not stated)
inactive: [11] 97 % of control | [12] 89 % of control

Cc1cc(C)c(NC(=O)c2cccc(C(=O)Nc3c(C)cc(C)cc3C)c2)c(C)c1
inactive: [14] 93 % of control | [15] 86 % of control | dose: 400.0 mg/kg/injection, schedule: Q01DX009 (ip), vehicle: Klucel (hydroxypropylcellulose) (HPC) 90 % of control

C(=C\c1ccccc1)/C[P+](c1ccccc1)(c1ccccc1)c1ccccc1
inactive: dose: 0.06 mg/kg/injection, schedule: Q01DX009 (ip), vehicle: saline sonified 100 % of control | dose: 1.25 mg/kg/injection, schedule: Q01DX009 (ip), vehicle: saline sonified 93 % of control | dose: 2.5 mg/kg/injection, schedule: Q01DX009 (ip), vehicle: saline sonified 97 % of control | dose: 5.0 mg/kg/injection, schedule: Q01DX009 (ip), vehicle: saline sonified 91 % of control

CCN(CC)C(C(=O)Nc1ccccc1)C(=O)Nc1ccccc1
inactive: [9] 100 % of control | [16] 90 % of control | [17] 95 % of control

C[n+]1ccc(Nc2ccc(NC(=O)c3ccc(Nc4cc[n+](C)c5ccc(N)cc45)cc3N)cc2)cc1
inactive: [18] 98 % of control | dose: 1.0 mg/kg/injection, schedule: Q02DX009 (ip), vehicle: Klucel (hydroxypropylcellulose) (HPC) 103 % of control and 105 % of control | [19] 105 % of control | dose: 2.0 mg/kg/injection, schedule: Q02DX009 (ip), vehicle: Klucel (hydroxypropylcellulose) (HPC) 109 % of control and 113 % of control | [1] 109 % of control | dose: 4.0 mg/kg/injection, schedule: Q02DX009 (ip), vehicle: Klucel (hydroxypropylcellulose) (HPC) 101 % of control and 106 % of control | [10] 109 % of control | [5] 104 % of control | [2] 106 % of control | dose: 8.0 mg/kg/injection, schedule: Q02DX009 (ip), vehicle: Klucel (hydroxypropylcellulose) (HPC) 108 % of control and 110 % of control | [11] 105 % of control | [6] 102 % of control | [3] 106 % of control | dose: 16.0 mg/kg/injection, schedule: Q02DX009 (ip), vehicle: Klucel (hydroxypropylcellulose) (HPC) 109 % of control and 113 % of control | [12] 89 % of control | dose: 32.0 mg/kg/injection, schedule: Q02DX009 (ip), vehicle: Klucel (hydroxypropylcellulose) (HPC) 92 % of control and 97 % of control

CC(=O)ON(C(C)=O)c1ccc(C(N)=O)cc1
inactive: [7] 91 % of control | [8] 89 % of control | [9] 86 % of control | [16] 88 % of control | [17] 94 % of control

C=C1C(=O)OC2/C=C(\C)CC/C=C(/C=O)C(OC(=O)C(C)C)C(O)C12 (configuration not stated)
inactive: [18] 97 % of control | [19] 89 % of control and 97 % of control | [1] 100 % of control and 103 % of control | [2] 100 % of control

COC(=O)C1C(O)C(C)C(O)C(C)(O)C=C(C)C2=C3C(=C(C)C(=O)c4c(O)c(c(C)c(OC(C)=O)c43)NC(=O)C(C)=C/C=C\C(C)(O)C(O)C(C)C1O)OCO2 (configuration not stated)
inactive: [13] 94 % of control | [14] 94 % of control | [15] 91 % of control

CC(=O)[O][Hg][c]1s[c]([Hg][O]C(C)=O)[c]([Hg][O]C(C)=O)[c]1[Hg][O]C(C)=O
inactive: dose: 0.75 mg/kg/injection, schedule: Q01DX009 (ip), vehicle: saline with Tween-80 102 % of control | dose: 1.5 mg/kg/injection, schedule: Q01DX009 (ip), vehicle: saline with Tween-80 92 % of control | dose: 3.0 mg/kg/injection, schedule: Q01DX009 (ip), vehicle: saline with Tween-80 87 % of control | dose: 6.0 mg/kg/injection, schedule: Q01DX009 (ip), vehicle: saline with Tween-80 97 % of control

C=CCOCC(O)CN1CCC(C)CC1 (configuration not stated)
inactive: dose: 25.0 mg/kg/injection, schedule: Q04DX003 (ip), vehicle: Klucel (hydroxypropylcellulose) (HPC) 88 % of control | dose: 50.0 mg/kg/injection, schedule: Q04DX003 (ip), vehicle: Klucel (hydroxypropylcellulose) (HPC) 101 % of control | dose: 100.0 mg/kg/injection, schedule: Q04DX003 (ip), vehicle: Klucel (hydroxypropylcellulose) (HPC) 107 % of control

N#CCN1CCCCC1
inactive: dose: 0.39 mg/kg/injection, schedule: Q01DX009 (ip), vehicle: saline 96 % of control | dose: 0.78 mg/kg/injection, schedule: Q01DX009 (ip), vehicle: saline 100 % of control | dose: 1.56 mg/kg/injection, schedule: Q01DX009 (ip), vehicle: saline 102 % of control

CCC(NC(=O)OC(C)(C)C)C(=O)O (configuration not stated)
inactive: [5] 100 % of control | [6] 95 % of control | dose: 25.0 mg/kg/injection, schedule: Q01DX009 (ip), vehicle: saline 95 % of control | dose: 50.0 mg/kg/injection, schedule: Q01DX009 (ip), vehicle: saline 88 % of control and 96 % of control
